Reference: ChEMBL document CHEMBL1201862, “PubChem BioAssay data set” (2004)
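Test compounds were applied to cells in 96-well plates for 48 hours at 5 doses. GI50 is the concentration that inhibits growth by half.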 Calls of active or inactive are those of the source. Cut-off read from the data, not from the text of the source: active = GI50 up to about 1.1 µM and inactive = higher.

Key:
Assay in all cases: growth of human tumour cells (NCI), 48 h
CCRF-CEM = system: CCRF-CEM
LOX IMVI = system: LOX IMVI
Malme-3M = system: Malme-3M
SK-MEL-2 = system: SK-MEL-2
RXF 393 = system: RXF 393
HCT-15 = system: HCT-15
SR = system: SR
SF-539 = system: SF-539
RPMI-8226 = system: RPMI-8226
HOP-62 = system: HOP-62
EKVX = system: EKVX
SNB-19 = system: SNB-19
HOP-92 = system: HOP-92
OVCAR-4 = system: OVCAR-4
M19-MEL = system: M19-MEL
ACHN = system: ACHN
MDA-N = system: MDA-N
MCF7 = system: MCF7
BT-549 = system: BT-549
Hs-578T = system: Hs-578T

| Structure (SMILES) | GI50 (CCRF-CEM) | GI50 (LOX IMVI) | GI50 (Malme-3M) | GI50 (SK-MEL-2) | GI50 (RXF 393) | GI50 (HCT-15) [µM] | GI50 (SR) | GI50 (SF-539) | GI50 (RPMI-8226) | GI50 (HOP-62) | GI50 (EKVX) | GI50 (SNB-19) | GI50 (HOP-92) | GI50 (OVCAR-4) | GI50 (M19-MEL) | GI50 (ACHN) | GI50 (MDA-N) | GI50 (MCF7) | GI50 (BT-549) | GI50 (Hs-578T) |
| --- | --- | --- | --- | --- | --- | --- | --- | --- | --- | --- | --- | --- | --- | --- | --- | --- | --- | --- | --- | --- |
| O=C(O)CCC(NC(=O)c1ccc(Nc2nc3ccccc3nc2-c2cccs2)cc1)C(=O)O (stereo unspecified) | > 100 µM (inactive) | > 100 µM (inactive) | > 100 µM (inactive) | > 100 µM (inactive) | > 100 µM (inactive) | > 100 | > 100 µM (inactive) | > 100 µM (inactive) | > 100 µM (inactive) | > 100 µM (inactive) | > 100 µM (inactive) | > 100 µM (inactive) | > 100 µM (inactive) | > 100 µM (inactive) | > 100 µM (inactive) | > 100 µM (inactive) | – | – | – | – |
| O=C(NCc1ccccc1)c1cc2cc(O)c(O)cc2cn1 | 6.4 µM (inactive) | 14.4 µM (inactive) | 34.6 µM (inactive) | 46.3 µM (inactive) | 21 µM (inactive) | 20 | 13.8 µM (inactive) | 29 µM (inactive) | 24.6 µM (inactive) | 20 µM (inactive) | 41.3 µM (inactive) | 46.9 µM (inactive) | 39.1 µM (inactive) | 25.5 µM (inactive) | 20.1 µM (inactive) | 12.5 µM (inactive) | – | – | – | – |
| Oc1ccc(O)c(-n2cccn2)c1-n1cccn1 | > 10 µM (inactive) | > 100 µM (inactive) | > 100 µM (inactive) | > 100 µM (inactive) | > 100 µM (inactive) | > 100 | – | > 100 µM (inactive) | > 100 µM (inactive) | > 100 µM (inactive) | > 100 µM (inactive) | > 100 µM (inactive) | > 100 µM (inactive) | > 100 µM (inactive) | 35.8 µM (inactive) | > 100 µM (inactive) | – | – | – | – |
| NC(=S)N/N=C1/CN(c2ccc(Cl)c(Cl)c2)CC(=O)C1c1nc2ccccc2s1 (stereo unspecified) | 66.2 µM (inactive) | 59.6 µM (inactive) | > 100 µM (inactive) | > 100 µM (inactive) | > 100 µM (inactive) | > 100 | – | 51.5 µM (inactive) | 79.1 µM (inactive) | > 100 µM (inactive) | > 100 µM (inactive) | 56.8 µM (inactive) | > 100 µM (inactive) | 92.7 µM (inactive) | > 100 µM (inactive) | 93.3 µM (inactive) | – | – | – | – |
| CS(=O)(=O)c1ccc(-c2cc(-c3ccc(S(C)(=O)=O)cc3)[n+](-c3cc(-c4ccc(S(C)(=O)=O)cc4)c([O-])c(-c4ccc(S(C)(=O)=O)cc4)c3)c(-c3ccc(S(C)(=O)=O)cc3)c2)cc1 | > 100 µM (inactive) | > 100 µM (inactive) | > 100 µM (inactive) | > 100 µM (inactive) | > 100 µM (inactive) | > 100 | > 100 µM (inactive) | > 100 µM (inactive) | > 100 µM (inactive) | > 100 µM (inactive) | – | > 100 µM (inactive) | – | > 100 µM (inactive) | > 100 µM (inactive) | > 100 µM (inactive) | – | – | – | – |
| O=C1Nc2ccc(Cl)c(I)c2C1=O | 15.4 µM (inactive) | 18.5 µM (inactive) | 20.2 µM (inactive) | 18.7 µM (inactive) | 16.3 µM (inactive) | 20.9 | 22 µM (inactive) | – | > 10 µM (inactive) | 19.5 µM (inactive) | 5.62 µM (inactive) | 24.5 µM (inactive) | – | 18.1 µM (inactive) | 11.7 µM (inactive) | 16.7 µM (inactive) | – | – | – | – |
| O=S1(=O)c2cc(S(=O)(=O)n3ccnc3)ccc2NC2=NCCCN21 | 21 µM (inactive) | 38.5 µM (inactive) | 37.9 µM (inactive) | – | – | – | 20.7 µM (inactive) | 19.6 µM (inactive) | 50 µM (inactive) | 22 µM (inactive) | > 100 µM (inactive) | 78.5 µM (inactive) | > 100 µM (inactive) | 47.4 µM (inactive) | 35.3 µM (inactive) | 34.3 µM (inactive) | – | – | – | – |
| CC(C)(C)C(=O)Nc1cccc2oc(-c3ccccc3)cc12 | > 100 µM (inactive) | – | – | > 100 µM (inactive) | 17.3 µM (inactive) | > 100 | 88.5 µM (inactive) | > 100 µM (inactive) | > 100 µM (inactive) | > 100 µM (inactive) | 65.3 µM (inactive) | > 100 µM (inactive) | 56.2 µM (inactive) | > 100 µM (inactive) | > 100 µM (inactive) | > 100 µM (inactive) | – | – | – | – |
| CCN(CC)CCSc1c2ccccc2nc2c(OC)ccc(OC)c12 | 2.13 µM (inactive) | 4.81 µM (inactive) | > 41.2 µM (inactive) | – | 1.94 µM (inactive) | 3.15 | 1.1 µM (active) | – | 2.23 µM (inactive) | 31.8 µM (inactive) | > 56.6 µM (inactive) | 43.6 µM (inactive) | 2.36 µM (inactive) | 10.7 µM (inactive) | 8 µM (inactive) | 5.61 µM (inactive) | – | – | – | – |
| O=C(O)CNS(=O)(=O)c1ccc(NC(=O)c2ccccc2[N+](=O)[O-])cc1 | > 100 µM (inactive) | > 100 µM (inactive) | > 100 µM (inactive) | > 100 µM (inactive) | > 100 µM (inactive) | > 100 | – | > 100 µM (inactive) | > 100 µM (inactive) | – | > 100 µM (inactive) | > 100 µM (inactive) | > 100 µM (inactive) | > 100 µM (inactive) | > 100 µM (inactive) | > 100 µM (inactive) | – | – | – | – |
| N#CC(C#N)=C(C(C#N)C#N)C(C#N)C#N | > 100 µM (inactive) | > 100 µM (inactive) | > 100 µM (inactive) | – | > 100 µM (inactive) | > 100 | > 100 µM (inactive) | > 100 µM (inactive) | > 100 µM (inactive) | > 100 µM (inactive) | > 100 µM (inactive) | > 100 µM (inactive) | > 100 µM (inactive) | > 100 µM (inactive) | > 100 µM (inactive) | – | – | – | – | – |
| CC1=CCCC(OC(N)=O)C1 (stereo unspecified) | > 100 µM (inactive) | > 100 µM (inactive) | > 100 µM (inactive) | > 100 µM (inactive) | > 100 µM (inactive) | > 100 | – | > 100 µM (inactive) | > 100 µM (inactive) | > 100 µM (inactive) | > 100 µM (inactive) | > 100 µM (inactive) | 46.2 µM (inactive) | > 100 µM (inactive) | > 100 µM (inactive) | > 100 µM (inactive) | – | – | – | – |
| C#CCN(N=O)C(=O)ON1C(=O)CCC1=O | > 100 µM (inactive) | > 100 µM (inactive) | > 100 µM (inactive) | > 100 µM (inactive) | > 100 µM (inactive) | > 100 | – | > 100 µM (inactive) | > 100 µM (inactive) | > 100 µM (inactive) | > 100 µM (inactive) | > 100 µM (inactive) | > 100 µM (inactive) | > 100 µM (inactive) | > 100 µM (inactive) | > 100 µM (inactive) | – | – | – | – |
| Clc1ccc(C2c3ccccc3-c3nc4ccccc4n32)cc1 (stereo unspecified) | 17.9 µM (inactive) | 19.7 µM (inactive) | 38.8 µM (inactive) | 22.2 µM (inactive) | 5.26 µM (inactive) | 17.3 | 8.99 µM (inactive) | > 54.7 µM (inactive) | 9.75 µM (inactive) | 16.9 µM (inactive) | 16.5 µM (inactive) | 31.7 µM (inactive) | 34.8 µM (inactive) | 15.9 µM (inactive) | – | 23 µM (inactive) | 51.3 µM (inactive) | 18.3 µM (inactive) | 43.5 µM (inactive) | 4.92 µM (inactive) |
| Cc1ccc2nc(NC(=O)C(=O)C3C(=O)NC(=S)NC3=O)sc2c1 | > 100 µM (inactive) | > 100 µM (inactive) | 55.6 µM (inactive) | > 100 µM (inactive) | 43.6 µM (inactive) | > 100 | > 10 µM (inactive) | > 100 µM (inactive) | > 100 µM (inactive) | > 100 µM (inactive) | > 100 µM (inactive) | > 100 µM (inactive) | > 100 µM (inactive) | > 100 µM (inactive) | – | > 100 µM (inactive) | > 100 µM (inactive) | > 100 µM (inactive) | > 100 µM (inactive) | > 100 µM (inactive) |
| FC(F)(F)c1ccccc1/C=N/C12CC3CC(CC(C3)C1)C2 | – | > 100 µM (inactive) | > 100 µM (inactive) | > 100 µM (inactive) | > 100 µM (inactive) | > 100 | > 100 µM (inactive) | > 100 µM (inactive) | > 100 µM (inactive) | > 100 µM (inactive) | > 100 µM (inactive) | 0.986 µM (active) | – | > 100 µM (inactive) | > 100 µM (inactive) | > 100 µM (inactive) | – | – | – | – |
| Cc1ccccc1C(C#N)C(=O)C(=O)Nc1nc([N+](=O)[O-])cs1 (stereo unspecified) | – | 40.2 µM (inactive) | > 100 µM (inactive) | – | > 100 µM (inactive) | > 100 | – | > 100 µM (inactive) | – | > 100 µM (inactive) | > 100 µM (inactive) | > 100 µM (inactive) | – | > 100 µM (inactive) | > 100 µM (inactive) | > 100 µM (inactive) | – | – | – | – |
| Cc1c(CNc2ccc(Cl)c(Cl)c2Cl)cnc2nc(N)nc(N)c12 | 0.125 µM (active) | 0.064 µM (active) | 3.12 µM (inactive) | 27.1 µM (inactive) | 11.9 µM (inactive) | 0.184 | 0.357 µM (active) | 0.483 µM (active) | 2.08 µM (inactive) | 1.04 µM (active) | 4.2 µM (inactive) | 14.6 µM (inactive) | 5.85 µM (inactive) | 14.5 µM (inactive) | – | 0.3 µM (active) | 0.0515 µM (active) | 0.792 µM (active) | 24.9 µM (inactive) | 17.8 µM (inactive) |
